Experimental findings from patent US4590205A, “Antiinflammatory and/or analgesic 2,3-diaryl-5-halo thiophenes” (E. I. Du Pont de Nemours and Company, priority 1984, dated 1986) are described below.

Experiment [1] deals with characteristic stretching or writhing syndrome which is indicative of pain induced by phenylquinone. In words: Phenylquinone writhing test (PQW), analgesic activity. The class given is in vivo, female white mice. To be noted: Mus musculus, read-out: PQW ED50. As for the experimental part:
A test compound suspended in 1% methylcellulose was given orally to fasted (17-21 hours) female white mice, 5-20 animals per double blind test. Aqueous (0.01% phenyl-p-benzoquinone) phenylquinone, 0.20 ml per mouse, was injected intraperitoneally 6 minutes before observations were begun.
A general note: In writhing tests, fewer writhes than in controls are read as antinociception.

Experiment [2] concerns adjuvant-induced arthritis in rats. In words: Established adjuvant-induced arthritis in rats (decrease of paw volume). The class given is in vivo, Charles River Lewis male rats. The settings on record: for ED50: Rattus norvegicus, read-out: Adjuvant Arthritis ED50.
[3] abbreviates: oral, fasted mice, effective analgesic dose for 50% of the mice.
[4] abbreviates: oral gavage, 7 daily doses, ED50% decrease from control paw volume.

Where two headings read alike, the source gives them in different places. A value given as a limit tells only on which side of the number the result lay.

Take `CS(=O)(=O)c1ccc(-c2sc(Br)cc2-c2ccc(F)cc2)cc1` [Example 9, 5-bromo-3-(4-fluorophenyl)-2-(4-methylsulfonylphenyl)thiophene]: the ED50 – broadly, the midpoint of the dose-response relation – in experiment [1] (setting [3]) is greater than 108 mg/kg; in experiment [2] (setting [4]), 0.4 mg/kg.

For `CSc1ccc(-c2sc(Br)cc2-c2ccc(F)cc2)cc1` [Example 5, 5-bromo-3-(4-fluorophenyl)-2-(4-methylthiophenyl)thiophene], the ED50 was greater than 108 mg/kg in experiment [1] (setting [3]) and 1.4 mg/kg in experiment [2] (setting [4]).

For `COc1ccc(-c2cc(I)sc2-c2ccc(OC)cc2)cc1` [Example 3, 5-Iodo-2,3-bis(4-methoxyphenyl)thiophene], the median effective dose (ED50) in experiment [1] (setting [3]) was less than 15 mg/kg. Further, in experiment [2] (daily dose 81 (mg/kg), oral), the “% Decrease from control paw volume at indicated daily dose” value turned out to be 46%.

As for `COc1ccc2c(c1)c(CC(=O)O)c(C)n2C(=O)c1ccc(Cl)cc1` [Indomethacin, indomethacin, reference compound], the 50% effective dose (ED50) in experiment [1] (po) came to 0.35 mg/kg; in experiment [2] (po) it was 0.3 mg/kg.

With `Cc1ccc(-c2cc(Br)sc2-c2ccc(C)cc2)cc1` [Example 7], the ED50 in experiment [1] (setting [3]) was 2.9 mg/kg; in experiment [2] (setting [4]), greater than 81 mg/kg.

For `CC(=O)Oc1ccccc1C(=O)O` [Aspirin, aspirin, reference compound], the values for the 50% effective dose (ED50) in experiment [1] (po) and in experiment [2] (po) were 135 mg/kg and 305 mg/kg, respectively.

For the compound `COc1ccc(-c2cc(Br)sc2-c2ccc(SC)cc2)cc1` [Example 8], the median effective dose (ED50) in experiment [1] (setting [3]) is less than 15 mg/kg; in experiment [2] (setting [4]) it was 2.9 mg/kg.

As to `CSc1ccc(-c2cc(Br)sc2-c2ccc(F)cc2)cc1` [Example 6, 5-bromo-2-(4-fluorophenyl)-3-(4-methylthiophenyl)thiophene], the median effective dose (ED50) in experiment [1] (setting [3]) was greater than 108 mg/kg; in experiment [2] (setting [4]) it was 0.25 mg/kg.

With `Fc1ccc(-c2cc(Br)sc2-c2ccc(F)cc2)cc1` [Example 1, 5-Bromo-2,3-bis(4-fluorophenyl)thiophene], the ED50 in experiment [1] (setting [3]) was 6.8 mg/kg; in experiment [2] (setting [4]), greater than 60 mg/kg.

With `COc1ccc(-c2cc(Cl)sc2-c2ccc(OC)cc2)cc1` [Example 2, 5-Chloro-2,3-bis(4-methoxyphenyl)thiophene], the ED50 in experiment [1] (setting [3]) was determined as 2.1 mg/kg; in experiment [2] (setting [4]), 4.5 mg/kg.

Take `CC(C)Cc1ccc(C(C)C(=O)O)cc1` (stereo not drawn) [Ibuprofen, ibuprofen, reference compound]: the ED50 is 10 mg/kg in experiment [1] (setting [3]) and 100 mg/kg in experiment [2] (setting [4]).

Turning to `CCCCC1C(=O)N(c2ccccc2)N(c2ccccc2)C1=O` [Phenylbutazone, phenylbutazone, reference compound], the ED50 turned out to be 80 mg/kg in experiment [1] (setting [3]) and 10 mg/kg in experiment [2] (setting [4]).
